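GI50 is the concentration that inhibits growth by half. Definition used: TGI = concentration required for complete inhibition of growth.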
Tests used:
Assay in all cases: NCI anticancer screen, dose series, 384-well format; in the data active = GI50 below about 0.43 µM; inactive = the rest
HL-60(TB) leukemia = tested on: HL-60(TB) leukemia
OVCAR-3 ovarian = tested on: OVCAR-3 ovarian
CCRF-CEM leukemia = tested on: CCRF-CEM leukemia
M14 melanoma = tested on: M14 melanoma
OVCAR-8 ovarian = tested on: OVCAR-8 ovarian
SK-MEL-5 melanoma = tested on: SK-MEL-5 melanoma
HCC-2998 colon = tested on: HCC-2998 colon
MOLT-4 leukemia = tested on: MOLT-4 leukemia
COLO 205 colon = tested on: COLO 205 colon
MDA-MB-468 breast = tested on: MDA-MB-468 breast
RXF 393 renal = tested on: RXF 393 renal
IGROV1 ovarian = tested on: IGROV1 ovarian
HCT-15 colon = tested on: HCT-15 colon
MDA-MB-435 melanoma = tested on: MDA-MB-435 melanoma
A498 renal = tested on: A498 renal
OVCAR-4 ovarian = tested on: OVCAR-4 ovarian
SK-OV-3 ovarian = tested on: SK-OV-3 ovarian
SK-MEL-28 melanoma = tested on: SK-MEL-28 melanoma
SW-620 colon = tested on: SW-620 colon
RPMI-8226 leukemia = tested on: RPMI-8226 leukemia
786-0 renal = tested on: 786-0 renal
OVCAR-5 ovarian = tested on: OVCAR-5 ovarian
PC-3 prostate = tested on: PC-3 prostate
SF-539 CNS = tested on: SF-539 CNS
KM12 colon = tested on: KM12 colon
NCI-H522 lung = tested on: NCI-H522 lung
HT29 colon = tested on: HT29 colon
K-562 leukemia = tested on: K-562 leukemia
A549 NSCLC = tested on: A549 NSCLC
SR leukemia = tested on: SR leukemia
SF-268 CNS = tested on: SF-268 CNS
NCI/ADR-RES ovarian = tested on: NCI/ADR-RES ovarian
NCI-H226 lung = tested on: NCI-H226 lung
NCI-H322M lung = tested on: NCI-H322M lung
T-47D breast = tested on: T-47D breast
UACC-62 melanoma = tested on: UACC-62 melanoma
LOX IMVI melanoma = tested on: LOX IMVI melanoma
BT-549 breast = tested on: BT-549 breast
SNB-19 CNS = tested on: SNB-19 CNS
CAKI-1 renal = tested on: CAKI-1 renal
ACHN renal = tested on: ACHN renal
MCF7 breast = tested on: MCF7 breast
SF-295 CNS = tested on: SF-295 CNS
NCI-H23 lung = tested on: NCI-H23 lung
NCI-H460 NSCLC = tested on: NCI-H460 NSCLC
MALME-3M melanoma = tested on: MALME-3M melanoma
UO-31 renal = tested on: UO-31 renal
SN12C renal = tested on: SN12C renal
TK-10 renal = tested on: TK-10 renal
SNB-75 CNS = tested on: SNB-75 CNS
UACC-257 melanoma = tested on: UACC-257 melanoma
EKVX NSCLC = tested on: EKVX NSCLC
DU-145 prostate = tested on: DU-145 prostate
HOP-62 NSCLC = tested on: HOP-62 NSCLC
MDA-MB-231 breast = tested on: MDA-MB-231 breast

Cc1nc2ccc(CN(C)c3ccc(C(=O)N[C@@H](CCC(=O)O)C(=O)O)s3)cc2c(=O)[nH]1
inactive: GI50 (SK-MEL-5 melanoma) > 100000 nM | GI50 (MDA-MB-468 breast) > 100000 nM | GI50 (OVCAR-4 ovarian) > 100000 nM | GI50 (KM12 colon) > 100000 nM | GI50 (NCI-H226 lung) 55500 nM | GI50 (NCI-H322M lung) > 100000 nM | GI50 (NCI-H23 lung) 490 nM | GI50 (UACC-257 melanoma) 6070 nM | GI50 (EKVX NSCLC) > 100000 nM | GI50 (MDA-MB-231 breast) 8370 nM
19.5 nM: TGI (HOP-62 NSCLC)
< 10 nM: TGI (HL-60(TB) leukemia) | TGI (CCRF-CEM leukemia) | TGI (M14 melanoma) | TGI (MOLT-4 leukemia) | TGI (RPMI-8226 leukemia) | TGI (NCI-H522 lung) | TGI (SR leukemia) | TGI (SF-268 CNS) | TGI (NCI/ADR-RES ovarian) | TGI (SF-295 CNS) | TGI (SN12C renal)
98.7 nM: TGI (SNB-19 CNS)
> 100000 nM: TGI (OVCAR-3 ovarian) | TGI (OVCAR-8 ovarian) | TGI (SK-MEL-5 melanoma) | TGI (HCC-2998 colon) | TGI (COLO 205 colon) | TGI (MDA-MB-468 breast) | TGI (RXF 393 renal) | TGI (IGROV1 ovarian) | TGI (HCT-15 colon) | TGI (MDA-MB-435 melanoma) | TGI (A498 renal) | TGI (OVCAR-4 ovarian) | TGI (SK-OV-3 ovarian) | TGI (SK-MEL-28 melanoma) | TGI (SW-620 colon) | TGI (786-0 renal) | TGI (OVCAR-5 ovarian) | TGI (PC-3 prostate) | TGI (SF-539 CNS) | TGI (KM12 colon) | TGI (HT29 colon) | TGI (K-562 leukemia) | TGI (A549 NSCLC) | TGI (NCI-H226 lung) | TGI (NCI-H322M lung) | TGI (T-47D breast) | TGI (UACC-62 melanoma) | TGI (LOX IMVI melanoma) | TGI (BT-549 breast) | TGI (CAKI-1 renal) | TGI (ACHN renal) | TGI (MCF7 breast) | TGI (NCI-H23 lung) | TGI (NCI-H460 NSCLC) | TGI (MALME-3M melanoma) | TGI (UO-31 renal) | TGI (TK-10 renal) | TGI (SNB-75 CNS) | TGI (UACC-257 melanoma) | TGI (EKVX NSCLC) | TGI (DU-145 prostate) | TGI (MDA-MB-231 breast)
active: GI50 (HL-60(TB) leukemia) < 10 nM | GI50 (OVCAR-3 ovarian) < 10 nM | GI50 (CCRF-CEM leukemia) < 10 nM | GI50 (M14 melanoma) < 10 nM | GI50 (OVCAR-8 ovarian) < 10 nM | GI50 (HCC-2998 colon) < 10 nM | GI50 (MOLT-4 leukemia) < 10 nM | GI50 (COLO 205 colon) < 10 nM | GI50 (RXF 393 renal) 11.9 nM | GI50 (IGROV1 ovarian) 46.2 nM | GI50 (HCT-15 colon) < 10 nM | GI50 (MDA-MB-435 melanoma) < 10 nM | GI50 (A498 renal) < 10 nM | GI50 (SK-OV-3 ovarian) < 10 nM | GI50 (SK-MEL-28 melanoma) < 10 nM | GI50 (SW-620 colon) < 10 nM | GI50 (RPMI-8226 leukemia) < 10 nM | GI50 ([…]-0 renal) < 10 nM | GI50 (OVCAR-5 ovarian) < 10 nM | GI50 (PC-3 prostate) < 10 nM | GI50 (SF-539 CNS) < 10 nM | GI50 (NCI-H522 lung) < 10 nM | GI50 (HT29 colon) < 10 nM | GI50 (K-562 leukemia) < 10 nM | GI50 (A549 NSCLC) < 10 nM | GI50 (SR leukemia) < 10 nM | GI50 (SF-268 CNS) < 10 nM | GI50 (NCI/ADR-RES ovarian) < 10 nM | GI50 (T-47D breast) < 10 nM | GI50 (UACC-62 melanoma) 23.3 nM | GI50 (LOX IMVI melanoma) < 10 nM | GI50 (BT-549 breast) < 10 nM | GI50 (SNB-19 CNS) < 10 nM | GI50 (CAKI-1 renal) < 10 nM | GI50 (ACHN renal) < 10 nM | GI50 (MCF7 breast) < 10 nM | GI50 (SF-295 CNS) < 10 nM | GI50 (NCI-H460 NSCLC) < 10 nM | GI50 (MALME-3M melanoma) 17.9 nM | GI50 (UO-31 renal) < 10 nM | GI50 (SN12C renal) < 10 nM | GI50 (TK-10 renal) < 10 nM | GI50 (SNB-75 CNS) < 10 nM | GI50 (DU-145 prostate) < 10 nM | GI50 (HOP-62 NSCLC) < 10 nM

— PubChem BioAssay (NCI)
